According to patent US20240052012A1, “PLATELET ALPHA-GRANULES FOR DELIVERY OF MULTIPLE PROTEINS” (CSTS Health Care Inc., priority 2021, published 2024):
Ends that are not written are not given here.

Tests used:
[1] = tested on: murine hemangioendothelioma cells (EOMA); experiment: Sequestration of bFGF by GAGs on EOMA cells; format: cell-based; conditions: monolayer culture, standard or tumor conditioned media; FIG. 20
Text: FIG. 20 is a graph showing sequestration of growth factors by glycosaminoglycans (GAGs) on the surface of murine hemangioendothelioma cells (EOMA). Here, the cells growing in monolayer tissue culture conditions either under standard media conditions or in surrogate tumor environment using tumor conditioned media, sequester bFGF onto the GAGS on platelets and endothelial cells, and thus remove it from the supernatant. […] Values represent means and SE of 5 wells.

[2] = tested on: EOMA cells and platelets; experiment: Immunofluorescence, aggregation of platelet PF4 on EOMA cells; format: cell-based, murine; conditions: FIG. 22
Method: Platelet factor 4 (PF4) has one of the highest affinities for HS occurring in nature and can occupy GAG sites and displace other HS binding growth factors. As such, PF4 acts as an inhibitor of tumor growth. FIG. 22 are immunofluorescent images showing that platelets form a provisional matrix that can exchange proteins with endothelial cells upon tumor activation. Murine hemangioendothelioma cells (EOMA) cells were grown in standard media (DMEM+10% FBS), and normal platelets were added. Under normal conditions (top row), PF4 (the main content of platelets α-granules; green and left column) is seen at the periphery (i.e., along the membrane) of the EOMA cells as the platelets aggregate along the cell membrane. Heparan sulphate (red, second from left column) is distributed throughout the membranous surface of the endothelial cell, and DAPI (blue, second from right column) is the nuclear counterstain. In absence of tumor conditioned media, thrombin or other activators of endothelial cell, there is no clumping and aggregation of the platelets. […] However, upon incubation of EOMA cells and platelets in presence of tumor conditioned media (second row), the expression of HS is increased, and a thick platelet provisional matrix is formed as shown by the aggregation of PF4 on the HS rich surface EOMA cell; this platelet provisional matrix is used by EOMA cells for growth. […]

[3] = tested on: alpha-granule subsets of platelets; experiment: Confocal microscopy, subcellular localization of Alexa647-labelled PAL1 and PAL2 against VEGF and PF4; format: cell-based; conditions: Alexa647-labelled peptides, FIG. 24; for loading into alpha-granule subsets: VEGF and PF4 markers; for preferred colocalization with alpha-granule subset marker: VEGF/PAL and PF4/PAL merged
Method: FIG. 24 are immunofluorescent images showing that PAL1 and PAL2 have different subcellular localizations, i.e., have a preference for distinct alpha-granules. Using VEGF as the marker of one alpha-granule set (green) and PF4 as the marker of the second alpha-granule set (red), the subcellular localization of Alexa647-labelled PAL1 and PAL2 (blue) were recorded on Nikon-Al confocal microscope.
The images FIG. 24 were acquired using Nikon-A1 confocal microscope equipped with a 60× oil immersed objective. PAL1 and PAL2 partially colocalize with both subsets of the alpha-granules as indicated by the cyan and purple pixels in the merged images. To quantify the difference between PAL1 and PAL2, the fractionation of loaded platelets were performed

[4] = Isothermal titration calorimetry (ITC) of GAG-binding peptides; conditions: for affinity for chondroitin sulfate A (dissociation constants by ITC): 22° C., 5 mM Tris-HCl pH 7.35, 1% DMSO, FIG. 3E, 3F
Method: FIG. 3A is a schematic depicting the isothermal titration calorimetry (ITC) experiments performed in this example. Here, chondroitin sulfate A (CSA) was used to test affinities of illustrative GAG-binding peptides for glycosaminoglycan. 3 mM CSA was loaded into a syringe and CSA was titrated into the sample cell withholding a 0.25 mM solution of GAG-binding peptide or a charge-free ligand (CFL), which served as a negative control. Temperature was set at 22° C., the buffer was 5 mM Tris-HCl (pH 7.35), and 1% DMSO.
FIG. 3B to FIG. 3D show graphical representations of ITC dissociation kinetics for CSA titrated into cells withholding PAL1 (FIG. 3B), PAL2 (FIG. 3C), and CFL (FIG. 3D).
The data obtained during the experiments of FIG. 3B and FIG. 3C were used to determine dissociation constants for the CSA and GAG-binding peptide interactions; these were determined through titration curve fitting using sequential binding model.
(§1) Additionally, the binding affinities for the two illustrative GAG-binding peptides, PAL1 and PAL2, to Heparan Sulfate (HS) and Chondroitin Sulfate (CSA) was determined using affinity chromatography. […] The dissociation constants were measured using ITC, the higher it is, the looser the binding is. […] The binding was measured by the elution volume on a Hi-Trap Heparin column attached to a FPLC system. The later the peak occurs, the tighter the binding is. In FIG. 4A, the peptide amino acid sequences including the control peptide (CFL) and the two PALs (PAL1 and PAL2) are shown.

[5] = tested on: isolated platelets; experiment: Platelet loading of Alexa647-labeled peptides, decrease in fluorescence in supernatant; format: cell-based; conditions: for fluorescence of supernatant, complete versus loaded measurements (platelet loading): Alexa647-labeled peptides co-incubated with isolated platelets at 37° C. for one hour, FIG. 1A; for loading of attached cargo into platelets, loaded condition normalized to its complete condition: FIG. 1B
Method: Alexa647-labeled peptides or Alexa647 alone were co-incubated with isolated platelets at 37° C. for one hour to allow for platelet loading. The respective platelet-loading ability was indicated by a decrease in fluorescence in supernatant following the incubation. For controls, identical experiments were performed without the incubation period (noted as “complete” in the figure). Platelets following co-incubation were then centrifuged at 800 g for 10-minutes to separate platelets from supernatant (noted as “loaded” in the figure).
FIG. 1B represents the data in FIG. 1A normalized for each peptide experiment, i.e., normalization of a loaded condition to its complete condition.

[6] = tested on: alpha granules of platelets; experiment: Confocal microscopy, colocalization of Alexa647-labeled peptides with PF4; format: cell-based; conditions: for loading into alpha granules of platelets (Alexa647 intensities per ROI): ROIs selected on PF4 intensity, FIG. 2B
Method: To confirm that the Alexa647-labeled GAG-binding peptides were loaded into alpha granules of platelets, confocal microscopy was used. The platelets that were centrifuged in the experiments of FIG. 1A and FIG. 1B, were fixed in 2% paraformaldehyde and settled onto glass coverslips. After permeabilization, immunofluorescence staining was performed against PF4, which is a marker for alpha granules of platelets. Platelets were stained with Alexa568-secondary antibody. Images were collected through a Nikon-A1 laser-scanning microscope equipped with a 60× oil objective lens.
FIG. 2A are representative images with PF4 staining shown in red (left column) and the Alexa647 signal (from the free Alexa647, Alexa647-labeled GAG-binding peptide, or Alexa647-labeled CFL; middle column) shown in purple. Images were only adjusted for brightness and contrast for display. n>5 images were acquired for each experiment and regions of interest (ROIs) were selected based on PF4 intensity.
The Alexa647 intensities for each ROI were measured using ImageJ and plotted in box and whisker graph using Prism 8.

[7] = tested on: platelets (platelet rich plasma); experiment: FACS analysis of growth factor uptake by platelets; format: cell-based; conditions: pretreatment of platelet rich plasma; FGF, PF4, VEGF, TPO; all but thrombopoietin; FIG. 15B
Text: (Inh=inhibitor added, PF4 receptor, a splice variant of the chemokine receptor CXCR3, known as CXCR3B).

[8] = Affinity chromatography of peptides, Hi-Trap Heparin column on FPLC; format: binding; conditions: PAL1 versus PAL2; FIG. 4C
Method: as §1

[9] = tested on: platelet α-granule; experiment: Confocal microscopy, loading of Alexa647-PAL1 conjugated Lucitanib; format: cell-based; conditions: one hour at 37° C.; FIG. 26A
Method: Platelets were co-incubated with Alexa647-labled Lucitanib or with Alexa647-PAL1 conjugated Lucitanib for one hour at 37° C. The platelets were then spun for 10-minutes at 800 g, fixed in 2% paraformaldehyde, and settled onto glass coverslips. After permeabilization, immunofluorescence staining was performed against PF4 in platelets and further stained with Alexa568-secondary antibody. The images were collected through a Nikon-Al laser-scanning microscope equipped with a 60× oil objective. FIG. 26A includes representative images in which immunofluorescence for PF4 was shown in red and Alexa647 was shown in blue. […] FIG. 26B is a graph showing the averaged intensities of Alexa647 channel for >800 ROIs in each group were analyzed using ImageJ and the error bar is the standard deviation of the mean.

thrombin
sequestration of bFGF from the supernatant onto GAGs [1]: released from the GAGs into the supernatant
aggregation of platelet PF4 on the HS rich surface of EOMA cells [2]: reproduced

ERRIWFPYRRF [PAL1]
loading into alpha-granule subsets [3]: loaded to both the subsets of alpha-granules
preferred colocalization with alpha-granule subset marker [3]: colocalized more to the VEGF subset
affinity for chondroitin sulfate A (dissociation constants by ITC) [4]: high affinity
relative binding to CSA (dissociation constants by ITC) ([4]; PAL1 versus PAL2, FIG. 4B): bind CSA tighter than PAL2
fluorescence of supernatant, complete versus loaded measurements (platelet loading) [5]: decrease in absorbance
loading of attached cargo into platelets, loaded condition normalized to its complete condition [5]: facilitates loading of an attached cargo into platelets
loading into alpha granules of platelets (Alexa647 intensities per ROI) [6]: facilitates loading of an attached cargo into alpha granules of platelets

Cc1cc(N)c2cc(NC(=O)Nc3ccc4nc(C)cc(N)c4c3)ccc2n1 [surfen]
growth factor uptake by platelets [7]: significantly inhibits growth factor uptake by platelets

Heparin
sequestration of bFGF from the supernatant onto GAGs [1]: further enhance the phenomenon
aggregation of platelet PF4 on the HS rich surface of EOMA cells [2]: inhibited

RFRWPYRIREF [PAL2]
loading into alpha-granule subsets [3]: loaded to both the subsets of alpha-granules
preferred colocalization with alpha-granule subset marker [3]: colocalized more to the PF4 channel
relative binding to HS (elution volume on Hi-Trap Heparin column) [8]: binds HS tighter than PAL1
affinity for chondroitin sulfate A (dissociation constants by ITC) [4]: high affinity
fluorescence of supernatant, complete versus loaded measurements (platelet loading) [5]: decrease in absorbance
loading of attached cargo into platelets, loaded condition normalized to its complete condition [5]: facilitates loading of an attached cargo into platelets
loading into alpha granules of platelets (Alexa647 intensities per ROI) [6]: facilitates loading of an attached cargo into alpha granules of platelets

EGGIWFPYGGF [CFL, reference compound]
fluorescence of supernatant, complete versus loaded measurements (platelet loading) [5]: did not change
loading of attached cargo into platelets, loaded condition normalized to its complete condition [5]: unable to direct loading of the cargo into platelets
loading into alpha granules of platelets (Alexa647 intensities per ROI) [6]: do not load into platelets
colocalization of alpha granule marker PF4 and Alexa647 signal ([6]; merged images, FIG. 2A): Co-localization was not observed

Alexa647-labelled PAL1 conjugated-Lucitanib: Lucitanib conjugated with Alexa647-labelled PAL1 (SEQ ID NO: 1) (ERRIWFPYRRF; also: Alexa647 label, conjugated to Lucitanib, sites not given here)
colocalization with PF4 / loading into α-granules [9]: colocalization
